Reference: patent US20030199671A1, “Binding molecules for Fc-region polypeptides” (priority 2001, published 2003)
Positions of bridges follow the written chain, without caps; N, C: chain ends. Residues, ends and D or L forms follow the SMILES beside them.

Columns and labels:
human IgG1 [1] = target: T1, human IgG1 (Homo sapiens, UniProt P01857); assay: Column capture from conditioned CHO cell culture supernatant containing 5% fetal bovine serum; type: binding; conditions: SEC-HPLC; load 93% monomer
T1 construct: all human subtypes derived from myeloma patients; purchased Calbiochem 400120; host or cells: myeloma patients
Protocol: Human IgG1 (93% monomer) was spiked into conditioned CHO media to 50 μg/ml and 5 ml (250 μg total) was loaded onto a 350 μl mini-column as described above. The column was washed to baseline with PBST, pH 7.2 and the flowthrough fraction collected. Bound IgG was eluted with 0.1M sodium bicarbonate buffer, pH 9.0, and the column cleaned with 0.1M CAPS, pH 11.5. The eluted and clean fractions were quickly neutralized to ˜pH 7.2 and assayed for mass recovery by SEC-HPLC. Thus, an 80% recovery (98% monomer) was obtained in the eluted fraction. The column load, flowtbrough, elution and cleaning fractions were further analyzed by electrophoresis (SDS-PAGE), Coomassie stain and Western analysis for the presence of human and bovine IgG.

IgG4 = IgG4 (Homo sapiens, UniProt P01861); assay: Competition between synthetic peptides and Protein A for Fc binding; parameters: the individual human plasma IgG isoforms: IgG1, IgG2, IgG3, or IgG4; purchased Calbiochem; host or cells: human plasma; key: NB: no detected binding.; ?: partial decrease in anisotropy with added competitor; conditions: 5 mg/ml protein A
Protocol: Cross-competition studies between peptides were performed using 20 nM fluorescein-labeled peptide and 1-2 μM IgG1, IgG2, IgG3, or IgG4 in the presence and absence of a maximum of 100 μM unlabeled peptide or 5 mg/ml protein A.
This is consistent with the fact that Protein A is known not to bind human IgG3.

human IgG1 [2] = target: T1, human IgG1; assay: Column capture out of tobacco extract; type: binding; conditions: from tobacco extract, size exclusion HPLC
Protocol: The ability of affinity media based on DX253 to capture human Fc and human IgG1 out of tobacco extract was evaluated in separate experiments. The tobacco extract used was a representative concentration blank lot (CropTech, lot NV100-136). Human Fc or IgG1 was spiked into the tobacco extract at 50 μg/ml. 100 μg (2 ml) was loaded onto a 350 μl column packed the DX253 media at 200 μl/min. (170 cm/hr.). Prior to loading, the column had been equilibrated with 50 mM Tris buffer containing 150 mM NaCl and 0.01% Tween 20, pH 7.3 (TBST, pH 7.3). After loading, the column was washed with 50 mM Tris buffer containing 1M NaCl, pH 7.3 followed by elution with 30 mM H3PO4, 150 mM NaCl, pH 2.0. The column was then cleaned with 0.1 M CAPS, pH 11.5 and separately with 30% isopropanol, 5% acetic acid in water, ˜pH 2.7. Collected fractions were neutralized immediately with 2M Tris, pH 8, prior to analysis by size exclusion HPLC.

human IgG = assay: DX253 column cycling with IgG spiked cell culture media
Protocol: DX253 peptide was immobilized onto NHS-activated 4 Fast Flow to a ligand density of 2.9 μmole/ml as determined by quantitative amino acid analysis. This affinity resin was packed into a 4.6 mm×6 cm (internal diam.×length, 1.0 ml bed volume) PEEK column (Isolation Technologies, Inc., 5050IP-08046-006-20).
Human IgG was spiked into fresh cell culture media (DMEM) containing 10% fetal bovine serum (ultra low) to 0.5 mg/ml. 2 ml (1.0 mg IgG) was loaded onto the column which was pre-equilibrated with PBS, pH 7.2. Loading was performed at 0.21 ml/minute (75 cm/hour) and all subsequent steps (wash, elution and cleaning) were performed at 0.42 ml/minute (150 cm/hour). Unbound sample was washed to baseline with PBS, pH 7.2, followed by elution with 0.1M citrate, pH 3.0, wash with PBS, pH 7.2, cleaning with 3M guanidine-HCl, 20 mM phosphate, pH 7.2 and re-equilibration back into PBS, pH 7.2. A total of 19 series of 5 cycles each (95 cycles total) were run. […] This procedure was used for cycles 1-25, 27-65, 67-85, and 87-95.

bovine IgG = assay: Mini-chromatography column binding (dynamic conditions); conditions: 250 μg target, 170 cm/hr
Protocol: (§1) Thus, 250 μg of target (hIgG1, hIgG2, hIgG3, hIgG4, goat IgG and bovine IgG) at 0.250 mg/ml in PBST, pH 7.2 or TBST, pH 7.3 was loaded onto a 350 μl column (3×50 mm) run at 0.200 ml/min. flowrate (170 cm/hr). Flowthrough, elution and cleaning fractions were collected and assayed for total protein recovery by size-exclusion HPLC. Percentage mass balance was also determined to be 90-100% on average.

goat IgG = assay: as above; conditions: 250 μg target, 170 cm/hr
Protocol: as §1

In the case of `CC[C@H](C)[C@@H]1NC(=O)[C@H](CC(C)C)NC(=O)[C@H](CCC(=O)O)NC(=O)CNC(=O)[C@H](Cc2c[nH]c3ccccc23)NC(=O)[C@H]([C@@H](C)O)NC(=O)[C@H]([C@@H](C)O)NC(=O)[C@H](Cc2ccc(O)cc2)NC(=O)[C@H](C(C)C)NC(=O)[C@@H](NC(=O)[C@H](CCSC)NC(=O)[C@H](Cc2c[nH]cn2)NC(=O)[C@H](CC(=O)O)NC(=O)[C@H](CC(=O)O)NC(=O)CNC(C)=O)CSSC[C@@H](C(=O)N[C@@H](CC(=O)O)C(=O)N[C@@H](CC(N)=O)C(=O)N[C@@H](Cc2c[nH]cn2)C(=O)N[C@@H](CCC(=O)O)C(=O)N2CCC[C@H]2C(=O)NCC(=O)N2CCC[C@H]2C(=O)N[C@@H](CCC(=O)O)C(=O)NCC(=O)NCC(=O)NCC(=O)N[C@@H](CCCCN)C(N)=O)NC(=O)[C@H](Cc2c[nH]c3ccccc23)NC1=O` [DX249] (Ac-GDDHMCVYTTWGELIWCDNHEPGPEGGGK-NH2; disulfide 6-17), the “Monomer in the eluted fraction” value (human IgG1 [1]) is reported as 98%.
In the case of `CC(=O)NCC(=O)N[C@@H](CC(=O)O)C(=O)N[C@@H](CC(=O)O)C(=O)N[C@@H](CC(=O)O)C(=O)N[C@@H](Cc1c[nH]cn1)C(=O)N[C@H]1CSSC[C@@H](C(=O)N2CCC[C@H]2C(=O)N[C@@H](Cc2c[nH]cn2)C(=O)NCC(=O)N[C@@H](CCC(=O)O)C(=O)N2CCC[C@H]2C(=O)NCC(=O)N2CCC[C@H]2C(=O)N[C@@H](CCC(=O)O)C(=O)NCC(=O)NCC(=O)NCC(=O)N[C@@H](CCCCN)C(N)=O)NC(=O)[C@H](CCC(=O)O)NC(=O)[C@H](CO)NC(=O)[C@H](CC(N)=O)NC(=O)[C@H](Cc2ccccc2)NC(=O)[C@H](Cc2c[nH]c3ccccc23)NC(=O)[C@H](CCC(=O)O)NC(=O)[C@H](CCCNC(=N)N)NC(=O)[C@H](Cc2ccccc2)NC(=O)[C@H](Cc2c[nH]c3ccccc23)NC(=O)[C@H](Cc2ccc(O)cc2)NC1=O` [DX252] (Ac-GDDDHCYWFREWFNSECPHGEPGPEGGGK-NH2; disulfide 6-17 (inferred)), the “Competition between labeled peptide and Protein A, IgG4” value (IgG4) is reported as “NB”.
In the case of “Ac-GDRRACSRDWSGALVWCAGHEPGPEGGGK-NH2 (not fully specified (bridges); printed as Ac-GDRRACSRDWSGALVWCAGHEPGPEGGGK-NH2; cysteine pairing not given here) [DX253]”, the “% purity monomeric protein, IgG1” value (human IgG1 [2]) is reported as 89%, the “% Relative Performance (elution peak area vs cycle 1)” value (shortened to “% Relative Performance”) (human IgG; Cycling Run No. 1, cycling run 1) is reported as 100% and the “% Relative Performance” value (human IgG; Cycling Run No. 10, cycling run 10) is reported as 97.6%. The “% Relative Performance” value (human IgG; Cycling Run No. 20, cycling run 20) was 97.9%, the “% Relative Performance” value (human IgG; Cycling Run No. 30, cycling run 30) was 102.3% and the “% Relative Performance” value (human IgG; Cycling Run No. 40, cycling run 40) was 103.1%. The “% Relative Performance” value (human IgG; Cycling Run No. 51, cycling run 51) was 102.0%, the “% Relative Performance” value (human IgG; Cycling Run No. 60, cycling run 60) was 103.1% and the “% Relative Performance” value (human IgG; Cycling Run No. 70, cycling run 70) was 102.6%. The “% Relative Performance” value (human IgG; Cycling Run No. 81, cycling run 81) was 102.1% and the “% Relative Performance” value (human IgG; Cycling Run No. 90, cycling run 90) was 101.8%.
In the case of “Prot. A: immobilized recombinant Protein A (RepliGen Corp., product no. IPA-400), positive control [reference compound]”, the “Binding efficiency, bovine IgG” value (bovine IgG) is reported as “high” and the “Binding efficiency, goat IgG” value (goat IgG) is reported as “moderate”.
